The text below walks through data of patent US20160045482A1, “UREIDO-PYRAZOLE DERIVATIVES” (Respivert Limited, priority 2010, published 2016).

Broadly, the IC50 is the concentration that gives 50% inhibition.

For one test, the system named is ICAM-1. Kind of test: ICAM1 expression activated by human rhinovirus in BEAS2B cells (cell-based ELISA). The settings on record: Homo sapiens, BEAS-2B, HRV16 inoculation (2 hr infection), read-out: HRV16-induced ICAM1 IC50 Value. As for the experimental part: BEAS2B cells were infected with rhinovirus at an MOI of 5 and incubated for 2 hr at 33° C. with gentle shaking to enhance adsorption. Test compounds were added 2 hr before HRV infection and 2 hr after infection when residual extracellular HRV was washed out. The cells were then washed with PBS, fresh media was added and the cells were incubated for a further 72 hr. The supernatant was collected for assay of IL-8 concentrations using the Duoset ELISA development kit (R&D Systems, Minneapolis, Minn.). […] After appropriate incubation, cells were fixed with 4% formaldehyde in PBS. After quenching endogenous peroxidase by adding 0.1% sodium azide and 1% hydrogen peroxide, wells were washed with buffer (0.05% Tween in PBS: PBS-Tween). After incubation with the blocking solution (5% milk in PBS-Tween for 1 hr), cells were incubated with anti-human ICAM-1 antibody in 5% BSA PBS-Tween (1:500) overnight. Wells were then washed with PBS-Tween and incubated with the secondary antibody (HRP-conjugated anti-rabbit IgG, Dako Ltd.).
Background: An ELISA detects its analyte on a solid surface through an enzyme-linked reagent.

In another test the test system is IL-8. Kind of test: IL-8 release activated by human rhinovirus in BEAS2B cells. The settings on record: Homo sapiens, BEAS-2B; BEAS2B cells, MOI of 5, 72 hr; read-out: HRV16-induced IL-8 IC50 Value. Format: cell-based. As for the experimental part: BEAS2B cells were infected with rhinovirus at an MOI of 5 and incubated for 2 hr at 33° C. with gentle shaking to enhance adsorption. Test compounds were added 2 hr before HRV infection and 2 hr after infection when residual extracellular HRV was washed out. The cells were then washed with PBS, fresh media was added and the cells were incubated for a further 72 hr. The supernatant was collected for assay of IL-8 concentrations using the Duoset ELISA development kit (R&D Systems, Minneapolis, Minn.).

A further test has as its system HRV16. The test is described as follows: Assessment of HRV16 induced CPE in MRC5. Format: cell-based, human rhinovirus 16. The settings on record: MRC5 cells; for IC50: Rhinovirus A, 96 h, HRV16 MOI of 1, 4 days, read-out: HRV16-induced CPE IC50 Value. As for the experimental part: The supernatants were aspirated and fresh media was added and the preparations were then incubated for 4 days. Where appropriate, cells were pre-incubated with the test compound or DMSO for 2 hr, and the compounds and DMSO added again after washout of the virus. Supernatants were aspirated and incubated with methylene blue solution (2% formaldehyde, 10% methanol and 0.175% Methylene Blue) for 2 hr at RT. After washing, 1% SDS was added to each well, and plates were shaken lightly for 1-2 hr prior to reading the absorbance at 660 nm. The percentage inhibition for each well was calculated. The IC50 value was calculated from the concentration-response curve generated from the serial dilutions of the test compound.

The subject of a further test is NFκB. The test is described as follows: HRV-16 induced activation of NFκB in BEAS2B cells. Format: cell-based, human. The settings on record: after 2 hr, at 10 MOI. As for the experimental part:
The cells were then collected by scraping on ice and nuclear extracts were prepared using a nuclear protein extraction kit (ActiveMotif, […], Belgium). NFκB activity and IRF3 activity were then measured using the TransAMTM NFκB (p65) ELISA kit or the TransAMTM IRF3 ELISA kit.

For the compound `CNC(=O)Nc1cc(Oc2ccc(NC(=O)Nc3cc(C(C)(C)C)nn3-c3ccc(C)cc3)c3ccccc23)ccn1` [Example 37], the values for the IC50 in the test with ICAM-1, with IL-8 and in the test with HRV16 were 0.029 nM, 0.12 nM and 24 nM, respectively. The “HRV16-induced CPE (in words)” value with HRV16 is given as “inhibited HRV16-induced CPE in MRC5 cells in a concentration-dependent manner”.

Turning to `Cc1ccc(-n2nc(C(C)(C)C)cc2NC(=O)Nc2ccc(Oc3ccnc(NC(=O)N4CCN(C)CC4)c3)c3ccccc23)cc1` [Example 44, N-(4-((4-(3-(3-(tert-Butyl)-1-(p-tolyl)-1H-pyrazol-5-yl)ureido)naphthalen-1-yl)oxy)pyridin-2-yl)-4-methylpiperazine-1-carboxamide], the results for the IC50 in the test on ICAM-1, in the test on IL-8 and in the test with HRV16 were 0.069 nM, 0.041 nM and 16.3 nM, respectively. Moreover, the “HRV16-induced CPE (in words)” value in the test with HRV16 is “inhibited HRV16-induced CPE in MRC5 cells in a concentration-dependent manner”.

With `Cc1ccc(-n2nc(C(C)(C)C)cc2NC(=O)Nc2ccc(Oc3ccnc(NC(=O)N4CCOCC4)c3)c3ccccc23)cc1` [Example 43, N-(4-(4-(3-(3-tert-Butyl-1-p-tolyl-1H-pyrazol-5-yl)ureido)naphthalen-1-yloxy)pyridin-2-yl)morpholine-4-carboxamide], the IC50 with IL-8 was 0.069 nM. Further, in the test on HRV16, the “HRV16-induced CPE (in words)” value is “inhibited HRV16-induced CPE in MRC5 cells in a concentration-dependent manner” and the IC50 stood at 9.5 nM.

For the compound `COc1cc(Nc2ncc(F)c(Nc3ccc4c(n3)NC(=O)C(C)(C)O4)n2)cc(OC)c1OC` [Example R-406], the “NFκB activation (HRV-16 induced)” value in the test with NFκB is given as “inhibited”.

Regarding `Cc1ccc(-n2nc(C(C)(C)C)cc2NC(=O)Nc2ccc(Oc3ccnc(NC(=O)N(C)C)c3)c3ccccc23)cc1` [Example 45, 3-(4-((4-(3-(3-(tert-Butyl)-1-(p-tolyl)-1H-pyrazol-5-yl)ureido)naphthalen-1-yl)oxy)pyridin-2-yl)-1,1-dimethylurea], the IC50 with ICAM-1 worked out at 0.098 nM; with IL-8, 0.041 nM; with HRV16, 9.4 nM. The “HRV16-induced CPE (in words)” value in the test with HRV16 is reported as “inhibited HRV16-induced CPE in MRC5 cells in a concentration-dependent manner”.

`Cc1ccc(-n2nc(C(C)(C)C)cc2NC(=O)Nc2ccc(Oc3ccnc(NC(=O)N4CCCC4)c3)c3ccccc23)cc1` [Example 14, N-(4-(4-(3-(3-tert-Butyl-1-p-tolyl-1H-pyrazol-5-yl)ureido)naphthalen-1-yloxy)pyridin-2-yl)pyrrolidine-1-carboxamide]: in the test on HRV16, the “HRV16-induced CPE (in words)” value is recorded as “inhibited HRV16-induced CPE in MRC5 cells in a concentration-dependent manner” and the IC50 is 3.3 nM.

Consider `Cc1ccc(-n2nc(C(C)(C)C)cc2NC(=O)Nc2ccc(Oc3ccnc(NC(N)=O)c3)c3ccccc23)cc1` [Example 30, 4-(4-(3-(3-tert-Butyl-1-p-tolyl-1H-pyrazol-5-yl)ureido)naphthalen-1-yloxy)pyridin-2-ylurea], for which the IC50 in the test with IL-8 was 0.019 nM. Moreover, in the test on HRV16, the “HRV16-induced CPE (in words)” value was “inhibited HRV16-induced CPE in MRC5 cells in a concentration-dependent manner” and the IC50 is 2.9 nM.

For the compound `Cc1ccc(-n2nc(C(C)(C)C)cc2NC(=O)Nc2ccc(Oc3ccnc(NC(=O)N4CC[C@@H](N(C)C)C4)c3)c3ccccc23)cc1` [Example 55, (R)-N-(4-(4-(3-(3-tert-Butyl-1-p-tolyl-1H-pyrazol-5-yl)ureido)naphthalen-1-yloxy)pyridin-2-yl)-3-(dimethylamino)pyrrolidine-1-carboxamide], in the test with HRV16, the “HRV16-induced CPE (in words)” value is “inhibited HRV16-induced CPE in MRC5 cells in a concentration-dependent manner” and the IC50 was 14.3 nM.
